Data set [1] has as its system HCT116 cells. The data set is described as follows: Functional cell death assay with inhibitors/activator. Conditions: then 10 µM RXC for 48 h; for effect of autophagy inhibitor on RXC-induced cell death: pretreated with 50 µM CQ or 5 mM 3-MA, annexin V-FITC/PI. The format is cell-based, human. From the text:
(§1) For apoptosis detection or functional assays, cell viability was quantified using annexin V-FITC/PI (FITC Annexin V Apoptosis Detection Kit I, BD Biosciences, San Jose, CA, USA) or YO-PRO-1/PI (Sigma-Aldrich Co.). The following inhibitors were used: chloroquine (autophagy inhibitor, Ipca Laboratories, Mumbai, MH, India); 3-methyladenine (autophagy inhibitor, Sigma-Aldrich Co.); and lithium chloride (Wnt activator, Sigma-Aldrich Co.).

Data set [2] relates to WT SV40 MEF. Briefly: Alamar blue survival curves. It counts as cell-based. To be noted: Mus musculus, 72 h. As for the experimental part:
(§2) The Alamar blue assay was used to determine cell viability as previously described. Cells were seeded into 96-well plates at a density of 7 × 10^3 cells per well for adherent cells or 3 × 10^4 cells per well for suspended cells. The drug was added to each well after 24 h of incubation for adherent cells or immediately for suspended cells and incubated for an additional 72 h. […] Each well received 100 µM resazurin (Sigma-Aldrich Co. St. Louis, MO, United States) four (for cell lines) or 24 (for primary culture) h before the end of the incubation. A SpectraMax 190 Microplate Reader (Molecular Devices, Sunnyvale, CA, USA) was used to measure absorbance at 570 and 600 nm.
Background: Alamar Blue is a resazurin reagent that responds to reducing activity.

Data set [3] deals with BAD KO SV40 MEF. Briefly: Alamar blue survival curves and cell death. It counts as cell-based, mouse. Conditions: Mus musculus; BAD KO SV40 MEF; Alamar blue, 72 h. The method, then:
as §2, §1

Data set [4] concerns 4T1. The data set is described as follows: Alamar blue cytotoxicity assay. It counts as cell-based, mouse. To be noted: Mus musculus, 72 h, read-out: IC50 and 95%CI. As for the experimental part:
as §2

Data set [5] relates to B16-F10. The data set is described as follows: Alamar blue cytotoxicity assay. It counts as cell-based, mouse. To be noted: Mus musculus, 72 h, read-out: IC50 and 95%CI. The method, then:
as §2

Data set [6] relates to A-375. The data set is described as follows: Alamar blue cytotoxicity assay. The format is cell-based, human. To be noted: Homo sapiens, 72 h, read-out: IC50 and 95%CI. As for the experimental part:
as §2

The subject of data set [7] is A549. Briefly: Alamar blue cytotoxicity assay. The format is cell-based, human. To be noted: Homo sapiens, 72 h, read-out: IC50 and 95%CI. As for the experimental part:
as §2

The subject of data set [8] is CAL 27. The data set is described as follows: Alamar blue cytotoxicity assay. The format is cell-based, human. To be noted: Homo sapiens, 72 h, read-out: IC50 and 95%CI. The method, then:
as §2

Data set [9] concerns DU 145. The data set is described as follows: Alamar blue cytotoxicity assay. It counts as cell-based, human. To be noted: Homo sapiens, 72 h, read-out: IC50 and 95%CI. The method, then: as §2
Data set [10] has as its system H1299. The data set is described as follows: Alamar blue cytotoxicity assay. It counts as cell-based, human. Conditions: Homo sapiens, NCI-H1299, 72 h, read-out: IC50 and 95%CI. The method, then:
as §2

Data set [11] deals with HCT116. Briefly: Alamar blue cytotoxicity assay. It counts as cell-based, human. Conditions: Homo sapiens, HCT-116, 72 h, read-out: IC50 and 95%CI. The method, then:
as §2

Data set [12] concerns HL-60. The data set is described as follows: Alamar blue cytotoxicity assay. The format is cell-based, human. Conditions: Homo sapiens, 72 h, read-out: IC50 and 95%CI. The method, then:
as §2

The test system of data set [13] is HSC-3. Briefly: Alamar blue cytotoxicity assay. It counts as cell-based, human. To be noted: Homo sapiens, 72 h, read-out: IC50 and 95%CI. As for the experimental part: as §2
Data set [14] relates to HepG2. The data set is described as follows: Alamar blue cytotoxicity assay. It counts as cell-based, human. Conditions: Homo sapiens, 72 h, read-out: IC50 and 95%CI. As for the experimental part: as §2
In data set [15] the test system is JUKART. Briefly: Alamar blue cytotoxicity assay. It counts as cell-based, human. Conditions: Homo sapiens, 72 h, read-out: IC50 and 95%CI. As for the experimental part:
as §2

Data set [16] has as its system K-562. The data set is described as follows: Alamar blue cytotoxicity assay. The format is cell-based, human. Conditions: Homo sapiens, K562, 72 h, read-out: IC50 and 95%CI. The method, then:
as §2

In data set [17] the test system is KG-1a. Briefly: Alamar blue cytotoxicity assay. The format is cell-based, human. To be noted: Homo sapiens, 72 h, read-out: IC50 and 95%CI. As for the experimental part:
as §2

The subject of data set [18] is MDA-MB-231. The data set is described as follows: Alamar blue cytotoxicity assay. It counts as cell-based, human. To be noted: Homo sapiens, 72 h, read-out: IC50 and 95%CI. As for the experimental part:
as §2

For data set [19], the system named is NB4. Briefly: Alamar blue cytotoxicity assay. It counts as cell-based, human. To be noted: Homo sapiens, NB-4, 72 h, read-out: IC50 and 95%CI. The method, then: as §2
Data set [20] has as its system PANC-1. The data set is described as follows: Alamar blue cytotoxicity assay. The format is cell-based, human. Conditions: Homo sapiens, 72 h, read-out: IC50 and 95%CI. The method, then: as §2
The subject of data set [21] is SCC-25. Briefly: Alamar blue cytotoxicity assay. It counts as cell-based, human. To be noted: Homo sapiens, 72 h, read-out: IC50 and 95%CI. As for the experimental part: as §2
For data set [22], the system named is SCC-9. The data set is described as follows: Alamar blue cytotoxicity assay. The format is cell-based, human. To be noted: Homo sapiens, 72 h, read-out: IC50 and 95%CI. As for the experimental part:
as §2

For data set [23], the system named is SCC4. The data set is described as follows: Alamar blue cytotoxicity assay. It counts as cell-based, human. To be noted: Homo sapiens, SCC-4, 72 h, read-out: IC50 and 95%CI. As for the experimental part: as §2
The test system of data set [24] is THP-1. Briefly: Alamar blue cytotoxicity assay. The format is cell-based, human. Conditions: Homo sapiens, 72 h, read-out: IC50 and 95%CI. As for the experimental part:
as §2

For data set [25], the system named is U-87 MG. Briefly: Alamar blue cytotoxicity assay. The format is cell-based, human. To be noted: Homo sapiens, 72 h, read-out: IC50 and 95%CI. The method, then:
as §2

Data set [26] deals with BJ. Briefly: Alamar blue cytotoxicity assay, noncancerous cells. It counts as cell-based, human. To be noted: Homo sapiens, 72 h, read-out: IC50 and 95%CI. As for the experimental part: as §2
For data set [27], the system named is MRC-5. Briefly: Alamar blue cytotoxicity assay, noncancerous cells. It counts as cell-based, human. To be noted: Homo sapiens, MRC5, MRC-5 noncancerous cells, 72 h, read-out: IC50 and 95%CI. The method, then: as §2
The test system of data set [28] is PBMC. The data set is described as follows: Alamar blue cytotoxicity assay, noncancerous cells. To be noted: Homo sapiens, 72 h, read-out: IC50 and 95%CI. The format is cell-based, human. As for the experimental part: as §2
In data set [29] the test system is CR01 (colorectal carcinoma). Briefly: Alamar blue viability of primary cancer cells. It counts as cell-based, human. To be noted: primary CRC (first listed); 25 μg/ml (RXC 31.3 μM, DOX 46 μM); 96 h. As for the experimental part:
as §2
(§3) CR03 (metastatic cholangiocarcinoma) CR04 (malignant papillary mesothelioma) […]
(§4) Figure S1. […] Cells were exposed to 25 […]
(§5) measured after 96 h using the Alamar blue assay. The data are presented as the […]
(§6) mean ± S.E.M. of four replicates. * P < 0.05 compared to CTL by one-way ANOVA […]
(§7) followed by Dunnett's multiple comparisons test. […]

For data set [30], the system named is CR03 (metastatic cholangiocarcinoma). The data set is described as follows: Alamar blue viability of primary cancer cells. It counts as cell-based, human. Conditions: 25 μg/ml (RXC 31.3 μM, DOX 46 μM), 96 h. The method, then: as §2, §3, §4, §5, §6, §7
In data set [31] the test system is CR04 (malignant papillary mesothelioma). Briefly: Alamar blue viability of primary cancer cells. The format is cell-based, human. Conditions: primary papilliferous malignant mesothelioma; 25 μg/ml (RXC 31.3 μM, DOX 46 μM); 96 h. As for the experimental part:
as §2, §3, §4, §5, §6, §7

Data set [32] concerns HCT116 cells. The data set is described as follows: Cell cycle distribution and internucleosomal DNA fragmentation by flow cytometry. It counts as cell-based, human. Conditions: 1 µM, positive control. As for the experimental part:
For quantification of internucleosomal DNA fragmentation and cell cycle distribution, the cells were stained with PI using a solution containing 0.1% Triton X-100, 2 µg/ml PI, 0.1% sodium citrate, and 100 µg/ml RNAse (all from Sigma-Aldrich) and incubated in the dark for 15 min at room temperature. Finally, cell fluorescence was measured using flow cytometry.
For all flow cytometry analyses, cell fluorescence was measured with a BD LSRFortessa cytometer and analyzed by BD FACSDiva Software (BD Biosciences) and FlowJo Software 10 (FlowJo LLC; Ashland, OR, USA). At least 10,000 events were evaluated per sample for intracellular staining, and at least 30,000 events were acquired per sample for cell surface protein staining. FSC-A versus FCS-H and SCC-A versus SCC-H were used to remove the doublets. The analysis excluded cellular debris.
For orientation: A flow cytometer gives signals particle by particle.

For data set [33], the system named is HCT116 cells. Briefly: CRC tumor growth xenograft model. To be noted: RXC 2 mg/kg, DOX 0.8 mg/kg, i.p. once a day for 2 weeks. The format is in vivo, C. B-17 SCID mice. The method, then: HCT116 cells (10^7 cells/500 μl) were inoculated subcutaneously into the left front armpit of mice, as previously reported. The animals were then treated intraperitoneally (200 μl/animal) once a day for 2 weeks. […] The animals were euthanized with an anesthetic overdose (thiopental, 100 mg/kg) 1 day after treatment ended, and tumors were excised, weighed, and processed for histological analysis. The inhibition ratio (percent) was calculated as follows: inhibition ratio (percent) = [(A − B)/A] × 100, where A is the average tumor weight of the negative control and B is the treated group.

The conditions of data set [34]: RXC 2 mg/kg, DOX 0.8 mg/kg.
Description: To evaluate toxicological features, all animals were weighed at the beginning and end of the experiment. Throughout the experiment, the animals were monitored for abnormalities. An Advia 60 hematology system was used to perform hematological analyses (Bayer, Leverkusen, Germany). The livers, kidneys, lungs, and hearts were removed, weighed, and examined for color change, gross lesion formation, and/or hemorrhaging before being fixed in 4% formaldehyde, dehydrated in a graded alcohol series, washed in xylene, and embedded in paraffin wax. The tissue was cut into 5 μm thick slices, stained with hematoxylin-eosin and/or periodic acid-Schiff (liver and kidney), and examined histologically under optical microscopy.

Each structure is given as a SMILES string.

Broadly, the IC50 is the concentration that gives 50% inhibition.

For the compound `Cn1cnc(N)c2ncnc1-2` [3-MA, 3-methyladenine], in [1], the “effect of autophagy inhibitor on RXC-induced cell death” value is on record as “enhanced RXC-induced cell death”.

`O=c1[nH]cc(F)c(=O)[nH]1` [5-FU, 5-fluorouracil, reference compound]: the values for the half-maximal inhibitory concentration (IC50) in data set [2] and in [3] were 10000 nM and 25800 nM, respectively.

In the case of `CCN(CC)CCCC(C)Nc1ccnc2cc(Cl)ccc12` (stereo not shown) [CQ, chloroquine], the “effect of autophagy inhibitor on RXC-induced cell death” value in data set [1] is reported as “enhanced RXC-induced cell death”.

As for `COc1cccc2c1C(=O)c1c(O)c3c(c(O)c1C2=O)C[C@@](O)(C(=O)CO)C[C@@H]3O[C@H]1C[C@H](N)[C@H](O)[C@H](C)O1` [DOX, Doxorubicin, reference compound], the concentration for half-maximal inhibition (IC50) in data set [4] was 1700 nM; in data set [5], 530 nM; in data set [6], 160 nM; in data set [7], 2350 nM; in [8], 180 nM; in data set [9] it was 220 nM. Besides, the half-maximal inhibitory concentration (IC50) in data set [10] was 770 nM; in data set [11] it was 3300 nM; in [12] it was 90 nM; in data set [13], 1430 nM; in data set [14] it was 90 nM; in data set [15], 30 nM. Besides, the concentration for half-maximal inhibition (IC50) amounted to 1500 nM in data set [16]; 400 nM in data set [17]; 550 nM in [18]; 110 nM in data set [19]; 1060 nM in data set [20]; 1580 nM in data set [21]. The IC50 in data set [22] amounted to 1210 nM; in data set [23] it was 70 nM; in [24], 120 nM; in data set [25], 440 nM; in [26], 730 nM; in data set [27], 1610 nM. The IC50 in [28] came out at 1280 nM. For the same compound, the results for the reduced cell viability in data set [29], in data set [30] and in data set [31] were 71.0%, 65.6% and 64.3%, respectively. Also, the cell cycle effect result in data set [32] is “G2/M arrest”. The compound also returned a tumor mass inhibition in [33] of 46.7%. Further, the hematological analysis result in data set [34] (i.p. once a day for 2 weeks) is “Decreases in erythrocytes, hemoglobin, hematocrit, MCV and leukocytes”. Besides, the “animals died during the treatment” value in data set [34] (i.p. once a day for 2 weeks, n = 15 per group) was “four”. In addition, in data set [34] (i.p. once a day for 2 weeks, p < 0.05), the body weight entry was “decrease in body weight”. In addition, in data set [34] (mainly in treated animals), the liver histology result is listed as “focal areas of hepatocyte coagulation necrosis”. For the same compound, in [34] (more evident than in control), the kidney histology entry is “focal areas of coagulation necrosis of the renal cortex tubules”.

Consider `[Cl-].[Li+]` [lithium chloride], for which the “effect of Wnt activator on RXC-induced cell death” value in data set [1] (pretreated with 25 mM LiCl, YO-PRO-1/PI) is “ineffective in preventing RXC-induced cell death”.

The record behind these values is article PMC10724293, “New ruthenium-xanthoxylin complex eliminates colorectal cancer stem cells by targeting the heat shock protein 90 chaperone” (Cell Death & Disease, 2023).
